In publication PMC3763632, “Radiosynthesis and Radiotracer Properties of a 7-(2-[^18F]Fluoroethoxy)-6-methoxypyrrolidinylquinazoline for Imaging of Phosphodiesterase 10A with PET” (Pharmaceuticals, 2012):
Values joined by “and” are separate entries in the source; they are usually repeats but may differ in a detail not shown here. Equal entries are not always repeated.

Tests used:
[1] = Chemical stability in vitro; assay type: physicochemical; conditions: for native [18F]IV remaining intact: up to 1.5 h
Procedure: Furthermore, the chemical stability of [^18F]IV in vitro under physiological conditions was investigated. […] For formulation and storage, radioligand stability in acetonitrile (98%, 1 h, 80 °C) and in ethanol (98%, 1 h, 80 °C; ≥99%, 1.5 h, 40 °C) was proven.

[2] = Biodistribution after i.v. injection; assay type: in vivo, female CD-1 mice
Procedure: The organ distribution of [^18F]IV after i.v. injection was investigated in female CD-1 mice. Time-activity data for ^18F corresponding uptake in peripheral organs, in the brain and in particular in the striatum at 5, 30, 60 and 120 min p.i. are presented in Table 2.
Conscious mice received a tail-vein injection of about 300 kBq of [^18F]IV, dissolved in 200 µL isotonic saline. At 5, 30, 60 and 120 min p.i. animals (n = 3–6 per time) were anaesthetized, and blood and urine samples were taken. After sacrifice, organs of interest were removed, separated, weighed, and radioactivity was measured in a calibrated γ-counter (Wallac WIZARD, Perkin Elmer, Waltham, MA, USA). Striatum was dissected from the brain and investigated separately. The percentage of the injected dose per gram of wet tissue (% ID/g) was calculated by the quotient of tissue counts and initial dose counts, and weight of the tissue sample.

COc1cc2c(N3CC[C@@H](Oc4cnc5ccccc5n4)C3)ncnc2cc1OCC[18F] [[^18F]IV, (R)-7-(2-[^18F]Fluoroethoxy)-6-methoxy-4-(3-(quinoxalin-2-yloxy)pyrrolidin-1-yl)quinazoline]
native [18F]IV remaining intact ([1]; 0.01 M TRIS-HCl buffer (pH 7.4 at 21 °C), 40 °C): ≥ 99%
native [18F]IV remaining intact ([1]; 0.9% sodium chloride solution (pH 7.2), 40 °C, radio-TLC): ≥ 99%
radioligand stability ([1]; acetonitrile, 1 h, 80 °C): 98%
radioligand stability ([1]; ethanol, 1 h, 80 °C): 98%
radioligand stability ([1]; ethanol, 1.5 h, 40 °C): ≥ 99%
native [18F]IV remaining intact ([1]; physiological phosphate-saline (pH 7.2), 40 °C): 97%
striatum-to-blood ratio ([2]; 30 min p.i., mice): 1.0
striatum-to-blood ratio ([2]; 60 min p.i., mice): 0.8
striatum-to-blood ratio ([2]; 120 min p.i., mice): 0.8
18F uptake, Adrenals ([2]; control, 5 min p.i.): 25.4 ± 5.87 % ID/g Wet Weight
18F uptake, Bladder ([2]; control, 5 min p.i.): 1.85 ± 0.39 % ID/g Wet Weight
18F uptake, Blood ([2]; control, 5 min p.i.): 1.88 ± 0.08 % ID/g Wet Weight
18F uptake, Brain ([2]; control, 5 min p.i.): 1.99 ± 0.21 % ID/g Wet Weight
18F uptake, Colon ([2]; control, 5 min p.i.): 0.55 ± 0.05 % ID/g Wet Weight
18F uptake, Femurs ([2]; control, 5 min p.i.): 2.00 ± 0.36 % ID/g Wet Weight
18F uptake, Femurs (fl.) (flushed) ([2]; control, 5 min p.i.): 1.11 ± 0.32 % ID/g Wet Weight
18F uptake, Gonads ([2]; control, 5 min p.i.): 2.58 ± 0.46 % ID/g Wet Weight
18F uptake, Heart ([2]; control, 5 min p.i.): 4.01 ± 0.47 % ID/g Wet Weight
18F uptake, Intestine ([2]; control, 5 min p.i.): 13.5 % ID/g Wet Weight and 13.5 ± 4.15 % ID/g Wet Weight
18F uptake, Kidneys ([2]; control, 5 min p.i.): 7.65 ± 0.54 % ID/g Wet Weight
18F uptake, Liver ([2]; control, 5 min p.i.): 20.5 % ID/g Wet Weight and 20.5 ± 1.87 % ID/g Wet Weight
18F uptake, Lungs ([2]; control, 5 min p.i.): 4.01 ± 0.51 % ID/g Wet Weight
18F uptake, Muscles ([2]; control, 5 min p.i.): 1.75 ± 0.12 % ID/g Wet Weight
18F uptake, Pancreas ([2]; control, 5 min p.i.): 5.19 ± 0.42 % ID/g Wet Weight
18F uptake, Plasma ([2]; control, 5 min p.i.): 3.97 ± 1.41 % ID/g Wet Weight
18F uptake, Spleen ([2]; control, 5 min p.i.): 4.23 ± 0.51 % ID/g Wet Weight
18F uptake, Stomach ([2]; control, 5 min p.i.): 6.14 ± 2.04 % ID/g Wet Weight
18F uptake, Striatum ([2]; control, 5 min p.i.): 2.3 % ID/g Wet Weight and 2.32 % ID/g Wet Weight and 2.32 ± 0.49 % ID/g Wet Weight
18F uptake, Thymus ([2]; control, 5 min p.i.): 3.10 ± 0.45 % ID/g Wet Weight
18F uptake, Urine ([2]; control, 5 min p.i.): 56.4 % ID/g Wet Weight and 56.4 ± 105 % ID/g Wet Weight
18F uptake, Bladder ([2]; control, 30 min p.i.): 3.51 ± 1.39 % ID/g Wet Weight
18F uptake, Blood ([2]; control, 30 min p.i.): 1.69 ± 0.38 % ID/g Wet Weight
18F uptake, Brain ([2]; control, 30 min p.i.): 1.54 ± 0.30 % ID/g Wet Weight
18F uptake, Colon ([2]; control, 30 min p.i.): 0.88 ± 0.44 % ID/g Wet Weight
18F uptake, Femurs ([2]; control, 30 min p.i.): 2.14 ± 1.13 % ID/g Wet Weight
18F uptake, Femurs (fl.) (flushed) ([2]; control, 30 min p.i.): 0.67 ± 0.24 % ID/g Wet Weight
18F uptake, Gonads ([2]; control, 30 min p.i.): 3.94 ± 0.84 % ID/g Wet Weight
18F uptake, Heart ([2]; control, 30 min p.i.): 2.93 ± 0.71 % ID/g Wet Weight
18F uptake, Intestine ([2]; control, 30 min p.i.): 43.2 ± 21.9 % ID/g Wet Weight
18F uptake, Kidneys ([2]; control, 30 min p.i.): 5.34 ± 1.4 % ID/g Wet Weight
18F uptake, Liver ([2]; control, 30 min p.i.): 16.4 ± 4.00 % ID/g Wet Weight
18F uptake, Lungs ([2]; control, 30 min p.i.): 3.51 ± 1.26 % ID/g Wet Weight
18F uptake, Muscles ([2]; control, 30 min p.i.): 1.31 ± 0.32 % ID/g Wet Weight
18F uptake, Pancreas ([2]; control, 30 min p.i.): 3.14 ± 0.70 % ID/g Wet Weight
18F uptake, Plasma ([2]; control, 30 min p.i.): 2.87 ± 0.54 % ID/g Wet Weight
18F uptake, Spleen ([2]; control, 30 min p.i.): 2.85 ± 0.60 % ID/g Wet Weight
18F uptake, Stomach ([2]; control, 30 min p.i.): 15.8 ± 6.09 % ID/g Wet Weight
18F uptake, Striatum ([2]; control, 30 min p.i.): 1.69 ± 0.44 % ID/g Wet Weight
18F uptake, Thymus ([2]; control, 30 min p.i.): 2.61 ± 0.50 % ID/g Wet Weight
18F uptake, Urine ([2]; control, 30 min p.i.): 18.5 ± 16.8 % ID/g Wet Weight
18F uptake, Adrenals ([2]; control, 60 min p.i.): 28.2 ± 11.4 % ID/g Wet Weight
18F uptake, Bladder ([2]; control, 60 min p.i.): 2.60 ± 0.78 % ID/g Wet Weight
18F uptake, Blood ([2]; control, 60 min p.i.): 1.45 ± 0.20 % ID/g Wet Weight
18F uptake, Brain ([2]; control, 60 min p.i.): 1.08 ± 0.26 % ID/g Wet Weight
18F uptake, Colon ([2]; control, 60 min p.i.): 1.08 ± 0.43 % ID/g Wet Weight
18F uptake, Femurs ([2]; control, 60 min p.i.): 2.95 ± 3.73 % ID/g Wet Weight
18F uptake, Femurs (fl.) (flushed) ([2]; control, 60 min p.i.): 0.58 ± 0.42 % ID/g Wet Weight
18F uptake, Gonads ([2]; control, 60 min p.i.): 3.50 ± 1.22 % ID/g Wet Weight
18F uptake, Heart ([2]; control, 60 min p.i.): 2.16 ± 0.45 % ID/g Wet Weight
18F uptake, Intestine ([2]; control, 60 min p.i.): 42.8 % ID/g Wet Weight and 42.8 ± 33.5 % ID/g Wet Weight
18F uptake, Kidneys ([2]; control, 60 min p.i.): 4.29 ± 0.93 % ID/g Wet Weight
18F uptake, Liver ([2]; control, 60 min p.i.): 14.5 ± 4.54 % ID/g Wet Weight
18F uptake, Lungs ([2]; control, 60 min p.i.): 2.37 ± 0.62 % ID/g Wet Weight
18F uptake, Muscles ([2]; control, 60 min p.i.): 1.22 ± 0.28 % ID/g Wet Weight
18F uptake, Pancreas ([2]; control, 60 min p.i.): 2.77 ± 0.85 % ID/g Wet Weight
18F uptake, Plasma ([2]; control, 60 min p.i.): 2.59 ± 0.36 % ID/g Wet Weight
18F uptake, Spleen ([2]; control, 60 min p.i.): 2.30 ± 0.25 % ID/g Wet Weight
18F uptake, Stomach ([2]; control, 60 min p.i.): 12.6 ± 5.08 % ID/g Wet Weight
18F uptake, Striatum ([2]; control, 60 min p.i.): 1.14 ± 0.29 % ID/g Wet Weight
18F uptake, Thymus ([2]; control, 60 min p.i.): 2.08 ± 0.51 % ID/g Wet Weight
18F uptake, Urine ([2]; control, 60 min p.i.): 23.1 ± 9.31 % ID/g Wet Weight
18F uptake, Skin ([2]; control, 60 min p.i., single values, n = 2): 1.45 % ID/g Wet Weight and 1.17 % ID/g Wet Weight
18F uptake, Adrenals ([2]; control, 120 min p.i.): 19.3 ± 13.2 % ID/g Wet Weight
18F uptake, Bladder ([2]; control, 120 min p.i.): 1.62 ± 0.28 % ID/g Wet Weight
18F uptake, Blood ([2]; control, 120 min p.i.): 1.05 ± 0.10 % ID/g Wet Weight
18F uptake, Brain ([2]; control, 120 min p.i.): 0.77 ± 0.10 % ID/g Wet Weight
18F uptake, Colon ([2]; control, 120 min p.i.): 3.49 ± 2.41 % ID/g Wet Weight
18F uptake, Femurs ([2]; control, 120 min p.i.): 1.61 ± 0.35 % ID/g Wet Weight
18F uptake, Femurs (fl.) (flushed) ([2]; control, 120 min p.i.): 1.15 ± 0.18 % ID/g Wet Weight
18F uptake, Gonads ([2]; control, 120 min p.i.): 1.64 ± 0.26 % ID/g Wet Weight
18F uptake, Heart ([2]; control, 120 min p.i.): 1.33 ± 0.20 % ID/g Wet Weight
18F uptake, Intestine ([2]; control, 120 min p.i.): 49.3 ± 8.03 % ID/g Wet Weight
18F uptake, Kidneys ([2]; control, 120 min p.i.): 2.13 ± 0.44 % ID/g Wet Weight
18F uptake, Liver ([2]; control, 120 min p.i.): 7.05 % ID/g Wet Weight and 7.05 ± 1.10 % ID/g Wet Weight
18F uptake, Lungs ([2]; control, 120 min p.i.): 1.46 ± 0.26 % ID/g Wet Weight
18F uptake, Muscles ([2]; control, 120 min p.i.): 0.66 ± 0.01 % ID/g Wet Weight
18F uptake, Pancreas ([2]; control, 120 min p.i.): 1.41 ± 0.07 % ID/g Wet Weight
18F uptake, Plasma ([2]; control, 120 min p.i.): 2.13 ± 0.80 % ID/g Wet Weight
18F uptake, Spleen ([2]; control, 120 min p.i.): 1.21 ± 0.24 % ID/g Wet Weight
18F uptake, Stomach ([2]; control, 120 min p.i.): 10.1 ± 5.96 % ID/g Wet Weight
18F uptake, Striatum ([2]; control, 120 min p.i.): 0.83 ± 0.10 % ID/g Wet Weight
18F uptake, Thymus ([2]; control, 120 min p.i.): 1.26 ± 0.07 % ID/g Wet Weight
18F uptake, Urine ([2]; control, 120 min p.i.): 30.9 % ID/g Wet Weight and 30.9 ± 8.06 % ID/g Wet Weight
uptake of radioactivity in femur ([2]; mice, time not specified): ~ 2 % ID/g
uptake of radioactivity in femur after removal of bone marrow ([2]; mice, time not specified): about 1 % ID/g
